Measurements published in PubChem BioAssay (NCI).
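Briefly, cells in 96-well plates were exposed to five compound concentrations for 48 h, and endpoints were estimated by linear interpolation. At the GI50, growth is halved. Definition used: TGI = concentration required for complete inhibition of growth.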

Experiments:
Assay in all cases: DTP human tumour cell line panel, 48 h
[1] = test system: MOLT-4 leukemia
[2] = test system: RPMI-8226 leukemia
[3] = test system: SW-620 colon
[4] = test system: K-562 leukemia
[5] = test system: HCT-15 colon
[6] = test system: SF-268 CNS
[7] = test system: UACC-62 melanoma
[8] = test system: ACHN renal
[9] = test system: NCI-H23 lung
[10] = test system: MDA-MB-231 breast

SMILES | GI50 [1] [µM] | TGI [1] [µM] | GI50 [2] [µM] | TGI [2] [µM] | GI50 [3] [µM] | TGI [3] [µM] | GI50 [4] [µM] | TGI [4] [µM] | GI50 [5] [µM] | TGI [5] [µM] | GI50 [6] [µM] | TGI [6] [µM] | GI50 [7] [µM] | TGI [7] [µM] | GI50 [8] [µM] | TGI [8] [µM] | GI50 [9] [µM] | TGI [9] [µM] | GI50 [10] [µM] | TGI [10] [µM]
COc1ccc2sc3cccc(NCCN(C)C)c3c(=O)c2c1 | 2.5 | 6.01 | 2.22 | 5.16 | 2.07 | 5.57 | 2.37 | 5.2 | 2.24 | 6.65 | 3.81 | 14.4 | 1.76 | 3.24 | 2.4 | 6.92 | 3.64 | 14.2 | 1.57 | 4.29
CCN(CC)CCNc1ccc(C)c2sc3cc(Cl)ccc3c(=O)c12 | 1.55 | 3.28 | 1.79 | 3.86 | 1.86 | 3.6 | 1.64 | 3.44 | 1.5 | 3.12 | 1.68 | 3.37 | 1.87 | 3.54 |  |  | 1.7 | 3.47 | 1.41 | 2.93
O=C1c2[nH]cc(CNC3CN4CCC3CC4)c2C(=O)c2c1c(O)c1ccccc1c2O (centres undefined) |  | 1.72 | 1.46 | 4.15 | 0.117 | 0.399 | 0.238 | 12.1 | 3.62 | 8.55 | 12.6 | 68.4 | 14.9 | 37.6 | 2.6 | 8.04 |  |  | 1.41 | 3.09
O=C1/C(=C\c2ccc(F)cc2)CN(C(=O)c2ccccc2)C/C1=C\c1ccc(F)cc1 | 2.56 | 72.5 | 0.296 | 1.17 |  |  | 0.983 | > 100 | 1.5 | 3.53 |  |  | 1.84 | 4.83 | 1.75 | 3.77 | 4.83 | 21.8 | 2.27 | 6.39
O=c1cc(-c2ccccc2)oc2ccc(OC/C(=N/O)c3ccccc3)cc12 | 5.72 | > 50 | 1.83 | > 50 | 1.74 | > 50 | 2.53 | > 50 | 2.19 | > 50 | 2.08 | 13.2 | 2.48 | > 50 |  |  | 2.4 | > 50 | 2.63 | > 50
CC[C@H]1CN2CCc3cc(OC)c(OC)cc3C2C[C@@H]1CC1NCCc2cc(OC)c(OC)cc21 (some centres undefined) |  | 3.75 |  | 0.128 |  | 0.238 | 0.0137 | 0.0779 |  | 2.02 |  |  |  | 0.316 |  | 1.42 |  | 0.0916 |  | 0.0994
O=C1CC[C@H](N2C(=O)c3cccc4c(Cc5ccc(CN6CCOCC6)cc5)ccc2c34)C(=O)N1 | 27.6 | > 100 | 9.18 | > 100 | > 100 | > 100 | 10.2 | > 100 | 41.8 | > 100 | > 100 | > 100 |  |  | 78.6 | > 100 | 29.4 | > 100 | 79.5 | > 100
OC(c1cc(-c2cccc(Cl)c2)nc2ccccc12)C1CCCCN1 (centres undefined) | 1.6 | 4.14 | 2.68 | 6.45 |  |  | 1.39 | 4.46 | 1.91 | 3.91 | 1.57 | 2.97 | 1.93 | 3.58 | 1.64 | 3.13 | 2.01 | 4.2 | 1.66 | 3.37
COC(=O)C(=O)C(C(=O)C(=O)Nc1cccc(C(C)=O)c1)c1nc2ccc([N+](=O)[O-])cc2[nH]c1=O (centres undefined) |  | > 100 |  | > 100 |  | > 100 |  | > 100 |  | > 100 |  | > 100 |  | > 100 |  | > 100 |  | > 100 |  | 
Cc1cc(=O)[nH]c(N/N=C/c2cc(Br)ccc2O)n1 | 0.432 | 15.5 | 0.843 | > 100 | 0.488 | > 100 | 0.605 | > 100 | 0.606 | > 100 | 0.728 | > 100 |  |  | 0.927 | > 100 | 0.481 | > 100 | 0.976 | > 100
NC1=CC(=O)c2cccnc2C1=O | 1.01 | 3.45 | 1.81 | 4.58 | 1.56 | 3.57 |  |  | 1.76 | 10.2 | 1.48 | 3.78 | 1.47 | 2.87 | 1.29 | 2.75 | 1.34 | 4.14 | 1.9 | 4.78
O=C(/C=C/c1ccco1)c1cc(F)c(Cl)cc1Cl |  |  | 13.8 | 39.9 | 13.1 | 36.3 | 30.2 | > 100 | 21.5 | 55.8 | 20 | 45.5 | 16.5 | 34.6 | 20.1 | 45.1 | 31 | > 100 | 21.9 | 58
COC(=O)C(Cc1nc2ccccc2[nH]c1=O)/C(=N\NC(C)(C)C)C(=O)Nc1c(C)cc(Br)cc1C (centres undefined) |  | 28.7 |  | > 100 |  | 80.1 |  | > 100 |  | 48.2 |  | 77.7 |  | 44.9 |  | > 100 |  | 78 |  | 
Cc1cc([N+](=O)[O-])ccc1NC(=O)C(=O)C(C(=O)c1ccccc1-c1ccccc1)C1OC(=O)c2ccccc21 (centres undefined) |  | 72.2 |  | 98 |  | 36.6 |  | 89.3 |  | 36.8 |  | 58.1 |  | 13.5 |  | > 100 |  | 80 |  | 
Cn1cc(C2=C(c3ccccc3[N+](=O)[O-])C(=O)NC2=O)c2ccccc21 |  |  | 5.93 | 15.2 | 3.97 | > 20 | 2.14 | > 25 | 5.16 | > 25 | 5.64 | 18 | 3.68 | 12.1 | 1.65 | > 23.4 | 7.25 | > 25 | 4.72 | 19.6
COC1=CC(c2ccc[nH]2)=N/C1=C\c1[nH]c(C)c(CC(=O)OCc2ccccc2)c1CCC(=O)OCc1ccccc1 | 0.309 | 2.01 | 0.234 | 0.76 | 0.345 | 2.43 |  |  | 0.313 | 1.18 | 0.464 |  |  |  | 0.333 | 1.02 | 0.546 | 4.45 | 0.224 | 1.67
C=CCC(N[C@@H](CO)c1ccccc1)c1cn(Cc2ccccc2Cl)c(=O)n(Cc2ccccc2Cl)c1=O (some centres undefined) |  |  | 55.8 | > 100 | > 100 | > 100 | > 100 | > 100 | > 100 | > 100 | > 100 | > 100 | 82.2 | > 100 | > 100 | > 100 | > 100 | > 100 | 78 | > 100
NCCCNc1nc2ccccc2c2c(=O)c3cc(F)cc(F)c3sc12 |  |  |  |  | 1.64 | 3.19 |  |  | 1.6 | 3.14 | 1.63 | 3.32 | 1.81 | 3.48 | 1.65 | 3.06 | 1.78 | 3.36 | 1.49 | 3.02
CCN(CC)CC(C)(C)C(=O)/C=C/c1cccc(/C=C/C(=O)C(C)(C)CN(CC)CC)c1 |  | 0.901 |  | > 100 |  | 0.419 |  | > 100 |  | 2.37 |  | 1.68 |  | 3.16 |  | 2.38 |  | 2.7 |  | 
CC1=Nc2ccccc2NC(c2ccoc2)C1 (centres undefined) |  | > 100 |  | > 100 |  | > 100 |  | > 100 |  | > 100 |  | > 100 |  | > 100 |  | > 100 |  | > 100 |  | 
Nc1c(-c2cn(Cc3ccccc3)c3ccccc23)[n+]([O-])c2ccccc2[n+]1[O-] |  | 92.3 |  | > 100 |  | > 100 |  | > 100 |  | > 100 |  | > 100 |  | > 100 |  | > 100 |  | 93.6 |  | 
COc1cccc2ccc(C(=O)c3ccccc3)nc12 |  | > 100 |  | > 100 |  | > 100 |  | > 100 |  | > 100 |  | > 100 |  | > 100 |  | > 100 |  | > 100 |  | 
CC1=C(O)c2cn(C)cc2C(=O)C1=O |  | > 100 |  | > 100 |  | > 100 |  | > 100 |  | > 100 |  | > 100 |  | > 100 |  | > 100 |  | > 100 |  | 
C[n+]1c(/C=C/c2c[nH]c3ccccc23)ccc2ccccc21 | 4.03 | 15.5 | 5.63 | 28.2 | 4 | 19.4 | 2.32 | 18.1 | 18 | 53.4 | 10.4 | 24.2 | 7.31 | 21.1 | 10.1 | 47.8 |  |  | 10.5 | 23
